Where two headings read alike, the source gives them in different places.

Common to all, as to type: cell-based
Series [1] has as its system human-derived adipose stem cells. Put plainly: Growth promoting capacity on human-derived adipose stem cells. Conditions: cultured for 2 days, different concentrations; optimal effect at 10 nM and 100 nM, FIG. 2. Here is the method: (§1) Human mesenchymal stem cells were cultured in DMEM medium (Invitrogen) containing 10% fetal bovine serum and 1% penicillin/streptomycin at 37° C. under 5% CO2, and the medium was changed every 3 days. After culturing the cells for 24 hours, P1P, cyclic P1P, and NAPS-1-P were dissolved in DMSO (Sigma) to a concentration of 2 mM, and appropriately diluted and added to the medium such that the final concentration was 1 μM. The absorbance was measured at 450 nm using Ez-Cytox at 24 hours (1 day), 48 hours (2 days), 120 hours (5 days) and 168 hours (7 days) after the addition, and the proliferation capacity of the stem cells according to P1P, cyclic P1P and NAPS-1 were measured. For the control group, an experiment was performed under the same conditions as above except that P1P, cyclic P1P and NAPS-1-P were not included.
In addition, the growth promoting-capacity of human-derived adipose stem cells was examined.

Series [2] shares this test system. The series is described as follows: Stem cell viability according to concentration of fetal bovine serum (serum-free or low-serum medium). The settings on record: read-out: viability as compared with 10% fetal bovine serum. As to the method: Human-derived adipose stem cells were cultured in DMEM medium having different concentrations of fetal bovine serum at 37° C. under 5% CO2. After culturing for 24 hours, the cells were washed twice with PBS at 37° C. to remove the serum components. Then, the cells were cultured in new DMEM medium containing 1 μM P1P and 1% fetal bovine serum. After 4 days, the absorbance was measured at 450 nm using an Ez-Cytox Cell Viability Assay Kit (Daeil Biotech) to measure the viability of stem cells according the concentration of fetal bovine serum and P1P. For the control group, an experiment was performed under the same conditions as above except that P1P was not included.

For series [3], the system named is Human mesenchymal stem cells. The series is described as follows: Measurement of stem cell proliferation capacity (Ez-Cytox, absorbance 450 nm). The settings on record: 1 uM; for increase of proliferation effect: cultured for 7 days, vs control without compound; for proliferation of stem cells: human mesenchymal stem cells, FIG. 1. Here is the method:
as §1

For series [4], the system named is human-derived adipose stem cells. The series is described as follows: Viability of stem cells with oxidative stress induced by hydrogen peroxide (H2O2). The settings on record: 6 hours after H2O2. As to the method: Human-derived adipose stem cells were cultured in DMEM medium containing 10% fetal bovine serum and 1% penicillin/streptomycin at 37° C. under 5% CO2. After culturing the cells for 24 hours, P1P, cP1P and NAPS-1-P were dissolved in DMSO to a concentration of 2 mM, and appropriately diluted and added to the medium such that the final concentrations were 10 nM, 100 nM, 1000 nM. After 1 hour of culture, 350 μM of H2O2 was added to the stem cells and cultured. After 6 hours, the absorbance was measured at 450 nm using Ez-Cytox, and the effect of P1P and derivatives thereof on the viability of stem cells against oxidative stress was measured. For the control group, an experiment was performed under the same conditions as above except that P1P, cyclic P1P, and NAPS-1-P were not included.

For series [5] the test system is unchanged. Put plainly: Osteogenic differentiation capacity (Alizarin Red S staining). The settings on record: osteogenic differentiation medium. As to the method:
Human-derived adipose stem cells were cultured in DMEM medium containing 10% fetal bovine serum and 1% penicillin/streptomycin at 37° C. under 5% CO2. After 24 hours of culture, P1P and derivatives thereof were diluted with the medium and added. After 24 hours of culture, the medium was replaced with a differentiation medium and changed with a differentiation medium every 3 days. The cells were cultured in alpha-DEM medium containing 10% fetal bovine serum, 10 nM dexamethasone, 0.2 mM ascorbic acid, 10 mM beta-glycerol phosphate and 1% penicillin/streptomycin at 37° C. under 5% CO2 as a composition for the differentiation medium. After 2 to 4 weeks, the stem cells were fixed and stained with Alizarin Red S. After removing the stem cell culture medium, the cells were washed 3 times with PBS, and after removal of PBS, the cells were fixed using 4% formaldehyde solution for 20 minutes at room temperature. After washing the cells 3 times with PBS, the cells were treated with a 2% Alizarin Red S solution for 20 minutes. […] For the control group, an experiment was performed under the same conditions as above except that P1P, cyclic P1P, and NAPS-1-P were not included.

Setting [6] is: fetal bovine serum reduced to 2%.

As to `CCCCCCCCCCCCCC[C@@H](O)[C@@H](O)[C@H](COP(=O)(O)O)NC(C)=O` [NAPS-1-P, N-acetyl phytosphingosine-1-phosphate], the “cell growth / proliferation effect” value in series [1] is recorded as “showed a higher proliferation effect”. The viability (commonly a read-out of living cells in per cent, often relative to untreated cells) at 1 µM in series [2] (setting [6]) was 70 to 80%; in series [2] (serum-free medium), around 50%. Besides, the “increase of proliferation effect” value in series [3] is on record as 2 fold. The “proliferation of stem cells” value in series [3] was “promoted the proliferation of stem cells to a similar level”. Also, the “Cell viability (%) by H2O2 treatment (350 uM)” value worked out at 75% in series [4] (compound 10 nM), 83% in series [4] (compound 100 nM) and 86% in series [4] (compound 1000 nM).
Consider `CCCCCCCCCCCCCC[C@@H](O)[C@H]1OP(=O)(O)OC[C@@H]1N` [cP1P, O-cyclic P1P], for which, in series [5], the osteogenic differentiation capacity result is given as “remarkably improved”. In series [1], the “cell growth / proliferation effect” value is given as “showed a higher proliferation effect”. Also, the viability at 1 µM in series [2] (setting [6]) was 70 to 80%; in series [2] (serum-free medium), around 50%. Further, in series [3], the “increase of proliferation effect” value is recorded as 2 fold. For the same compound, the “proliferation of stem cells” value in series [3] is “promoted the proliferation of stem cells to a similar level”. Moreover, the “Cell viability (%) by H2O2 treatment (350 uM)” value is recorded as 77% in series [4] (compound 10 nM), 84% in series [4] (compound 100 nM) and 86% in series [4] (compound 1000 nM).
